According to BindingDB's records for doi:10.1016/j.ejmech.2013.06.030 (National Institute On Drug Abuse and The National Institute …, 2013):

These compounds were tested against Delta-type opioid receptor (Homo sapiens, UniProt P41143) (assay: Displacement of [3H]DADLE from human delta opioid receptor expressed in CHO cells after 2 hrs by liquid scintillation counting).
Sequence of Delta-type opioid receptor (P41143 whole entry): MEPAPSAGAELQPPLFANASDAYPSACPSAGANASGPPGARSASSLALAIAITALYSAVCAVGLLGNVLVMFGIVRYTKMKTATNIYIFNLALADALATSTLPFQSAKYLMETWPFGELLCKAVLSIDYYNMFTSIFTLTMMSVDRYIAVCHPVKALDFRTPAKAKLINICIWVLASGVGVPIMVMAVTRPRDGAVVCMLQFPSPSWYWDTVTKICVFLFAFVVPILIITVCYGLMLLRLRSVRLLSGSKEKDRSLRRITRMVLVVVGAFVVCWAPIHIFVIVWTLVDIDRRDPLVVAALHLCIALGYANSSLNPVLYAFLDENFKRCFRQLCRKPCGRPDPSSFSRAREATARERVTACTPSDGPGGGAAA

Going from C[C@H]1C[C@H]2C[C@](c3cccc(O)c3)(CCN2C)C1 to C[C@H]1CC[C@@]2(c3cccc(O)c3)CCN(C)[C@@H]1C2, the Ki falls from 721 nM to 139 nM (5.2-fold). The second binds more tightly here.

Compared with CN1CC[C@]2(c3cccc(O)c3)C[C@@H](c3ccccc3)C[C@H]1C2, Oc1cccc([C@@]23CCN(CCc4ccccc4)[C@@H](C[C@H](c4ccccc4)C2)C3)c1 is 1.8-fold lower in Ki: 583 nM for the first, 318 nM for the second.

First: Oc1cccc([C@@]23CCN(CCc4ccccc4)[C@H](C[C@@H](O)C2)C3)c1
Second: C[C@H]1C[C@H]2C[C@](c3cccc(O)c3)(CCN2CCc2ccccc2)C1
The Ki of the first is 3.4-fold higher: 876 nM for the first, 260 nM for the second. The second binds more tightly here.

C[C@H]1CC[C@@]2(c3cccc(O)c3)CCN(CCc3ccccc3)[C@@H]1C2 and Oc1cccc([C@]23CCN(CCc4ccccc4)[C@H](C2)[C@H]2CCCC[C@@H]2C3)c1 are within 1.5-fold of each other in Ki: 126 nM for the first, 103 nM for the second.
